Experimental data: US4261986A, “4-Halo etianic acids and derivatives thereof” (Syntex (U.S.A.) Inc., priority 1979, dated 1981)

Assays:
[1] = therapeutic advantage (topical potency versus systemic activity); assay type: in vivo; conditions: in words
Method: The topical anti-inflammatory activity potential for each compound was assayed using a modified Stoughton/-McKenzie vaso-constriction assay in humans, V. A. Place, et al, Arch. […]. 101, 531-537 (1970). Eight normal adult human subjects were treated on each forearm by topical administration with alcohol solutions containing 1×10^-5 and 1×10^-6 g/ml of each of the compounds to provide 64 total test sites for each compound in a series (32 for each concentration). Areas of the subjects' forearms were outlined by a rubber stamp grid coated with silicone grease, and 10 microliters are applied per 7×7 mm square site. After the preparations have dried, the areas on each forearm are covered with Saran® wrap and the margins sealed with tape. The occlusive wrap is removed after 18 hours. Twenty-four hours after application, the presence of vasoconstriction is noted by visual examination, and expressed as the number of sites responding (vasoconstriction). Fluocinolone acetonide is used as a standard. Also, the intensity of the vasoconstriction is scorred on a 0, 1, 2 scale, 2 being the most intense reaction. Both scores are used in constructing dose-response graphs according to methods set forth in an article by V. A. Place et al, infra. […]

[2] = test system: normal adult human subjects (vasoconstriction); test: topical anti-inflammatory activity, modified Stoughton/McKenzie vasoconstriction assay in humans; assay type: in vivo
Text: The compounds of Formula (I) where R is alkyl of 1-6 carbon atoms, haloalkyl of 1-6 carbons or phenyl or benzyl optionally substituted on the phenyl ring with alkyl of 1-4 carbons, alkoxy of 1-4 carbons or halo and R^1, R^2, X^1, X^2, X^3 and X^4 are as defined in the broadest aspect of the invention are useful for the relief of inflamed conditions in mammals, and more specifically are useful for relieving inflammatory manifestations of corticosteroid responsive dermatoses. Initial approximation of anti-inflammatory activity is done by following the procedure of McKenzie, S. W. and Stoughton, R. B., "Methods for Comparing Percutaneous Absorption of Steroids" Arch Dermat, 86, (1962) or modifications thereof.
The topical anti-inflammatory activity potential for each compound was assayed using a modified Stoughton/-McKenzie vaso-constriction assay in humans, V. A. Place, et al, Arch. Dermat. 101, 531-537 (1970). Eight normal adult human subjects were treated on each forearm by topical administration with alcohol solutions containing 1×10^-5 and 1×10^-6 g/ml of each of the compounds to provide 64 total test sites for each compound in a series (32 for each concentration). […] Twenty-four hours after application, the presence of vasoconstriction is noted by visual examination, and expressed as the number of sites responding (vasoconstriction). […]

thymus gland = conditions: rat, in vivo, sc
Method: The compounds to be tested for thymolytic activity including a hydrocortisone (HC) standard, were prepared in three or more concentrations by suspension in a sodium carboxymethyl-cellulose vehicle. Animals received the test materials by subcutaneous injection of 0.5 ml of the suspension on each of three successive days. Four hours following the final injection, the rats were sacrificed and the thymus gland of each animal removed and weighed. These weights are then employed to establish dose-response graphs by methods known in the art.

Swiss-Webster mice = test: LD50, single subcutaneous injection, mortality observed for 21 days; assay type: in vivo, mouse; conditions: six mice, 25 mg/kg subcutaneous, 21 days
Method: (§1) Six Swiss-Webster mice (Simonsen) each weighing about 25 grams, were injected subcutaneously with a solution of methyl 6α,9α-difluoro-11β-hydroxy-16α-methyl-3-oxo-17α-n-propionyloxyandrosta-1,4-diene 17β-thiocarboxylate in […] having a concentration of 10 ml/kg. The dosage was 25 mg/kg or about 0.625 mg/mouse. The mice were observed daily for mortality for 21 days.

[3] = as above; assay type: in vivo, mouse; conditions: mouse, in vivo, sc; Swiss-Webster mice, subcutaneous, 21 days observation
Method: as §1

| SMILES | therapeutic advantage [1] | topical potency relative to FA ([2]; alcohol solutions 1×10^-5 and 1×10^-6 g/ml, fluocinolone acetonide standard) | topical potency ([2]; in words) | systemic activity relative to HC (thymus gland) [times HC] | thymolytic activity (thymus gland) | mortality (Swiss-Webster mice) | LD50 at 504 h [3] [mg/kg] |
| --- | --- | --- | --- | --- | --- | --- | --- |
| CCC(=O)O[C@]1(C(=O)OC)[C@H](C)C[C@H]2[C@@H]3C[C@H](F)C4=C(F)C(=O)C=C[C@]4(C)[C@@]3(F)[C@@H](O)C[C@@]21C [methyl 4,6α,9α-trifluoro-11β-hydroxy-16α-methyl-3-oxo-17α-propionyloxyandrosta-1,4-diene 17β-carboxylate] | distinct therapeutic advantage | 1-2 time FA | excellent topical potency | 10 | slight activity in the dose range of hydrocortisone | – | – |
| CCC(=O)O[C@]1(C(=O)SC)[C@H](C)C[C@H]2[C@@H]3C[C@H](F)C4=CC(=O)C=C[C@]4(C)[C@@]3(F)[C@@H](O)C[C@@]21C [methyl 6α,9α-difluoro-11β-hydroxy-16α-methyl-3-oxo-17α-n-propionyloxyandrosta-1,4-diene 17β-thiocarboxylate] | – | – | – | – | – | One mouse died | > 25 |
